Structures can show the parent of a compound that is named as a salt.

From patent publication US11028072B2, “2,4-diamino-6-ethylpyrimidine derivatives with antimalarial activities against Plasmodium falciparum” (National Science and Technology Development Agency, priority 2015, dated 2021) come the findings set out here.

In the first data set the test system is P. falciparum TM4/8.2 (wild type). Put plainly: microbe, parasite or virus in culture. The note with it: Plasmodium falciparum; in vitro, wild-type strain TM4/8.2; read-out: IC50 P. falciparum TM4/8.2 (WT). The class given is cell-based, Plasmodium falciparum. The source says:
(§1) In Vitro Antimalarial Activites Against P. falciparum and Cytotoxicity Towards Mammalian Cells (Vero Cells)
`CCc1nc(N)nc(N)c1-c1ccc(Cl)cc1` [Pyrimethamine, pyrimethamine, reference compound]: the IC50 is 0.058 ± 0.03 µM.

A further data set concerns P. falciparum V1/S (N51I + C59R + S108 + I164L). Nature of the data set: microbe, parasite or virus in culture. The class given is cell-based, Plasmodium falciparum. The note with it: Plasmodium falciparum; in vitro, quadruple mutant strain V1/S; read-out: IC50 P. falciparum V1/S.
From the text: as §1
For `CCc1nc(N)nc(N)c1-c1ccc(Cl)cc1` [Pyrimethamine, pyrimethamine, reference compound], the IC50 was greater than 100 µM.

Test system in a further data set: not given
Test: not given
Conditions: not given
One may read the melting point as the temperature, or range, at which the solid turns liquid. Turning to `CCc1nc(N)nc(N)c1-c1cn(CCCOc2ccc(C(=O)OC)cc2)nn1` (as salt: hydrochloride) [Compound 12], the melting point was in the range of 211 to 212 °C.

`CCc1nc(N)nc(N)c1-c1cn(-c2ccccc2)nn1` (as salt: hydrochloride) [Compound 1]: the melting point was in the range of 273.2 to 274.5 °C.

Take `CCc1nc(N)nc(N)c1OCCCc1cn(-c2cccc(C(=O)O)c2)nn1` (as salt: hydrochloride) [Compound 23]: the melting point lay within 230.5 to 231.5 °C.

Compound `CCc1nc(N)nc(N)c1OCc1cc(-c2ccc([N+](=O)[O-])cc2)no1` (as salt: hydrochloride) [Compound 43] showed a melting point of 216 to 218 °C.

The compound `CCc1nc(N)nc(N)c1-c1cn(CCCc2ccccc2)nn1` (as salt: hydrochloride) [Compound 8] displayed a melting point of 233 to 235 °C.

For `CCc1nc(N)nc(N)c1OCc1cc(-c2ccc(OC)cc2)no1` (as salt: hydrochloride) [Compound 42], the melting point is 214 to 216 °C.

As to `CCc1nc(N)nc(N)c1OCCCc1cn(-c2ccc(C(=O)OC)cc2)nn1` (as salt: hydrochloride) [Compound 24], the melting point was in the range of 208 to 209.5 °C.

With `CCc1nc(N)nc(N)c1OCc1coc(-c2ccccc2)n1` (as salt: hydrochloride) [Compound 50], the melting point lay within 231 to 232 °C.

The compound `CCc1nc(N)nc(N)c1OCc1csc(-c2ccc(OCC(=O)OCc3ccccc3)cc2)n1` (as salt: hydrochloride) (hydrate or solvate) [Compound 72] yielded a melting point of 178 to 180 °C.

`CCc1nc(N)nc(N)c1OCc1csc(-c2cccc([N+](=O)[O-])c2)n1` (as salt: hydrochloride) [Compound 62] showed a melting point of 235 to 236.5 °C.

With `CCc1nc(N)nc(N)c1OCc1cc(-c2ccc(Cl)cc2)no1` (as salt: hydrochloride) [Compound 35], the melting point lay in the range of 230 to 231.5 °C.

Turning to `CCc1nc(N)nc(N)c1OCc1cn(-c2cccc(C(=O)OC)c2)nn1` (as salt: hydrochloride) [Compound 15], the melting point was 211 to 212 °C.

`CCc1nc(N)nc(N)c1-c1cn(Cc2ccc(C(=O)O)cc2)nn1` (as salt: hydrochloride) [Compound 5]: the melting point lay in the range of 270 to 272 °C.

`CCc1nc(N)nc(N)c1OCc1cc(-c2cccc(C(F)(F)F)c2)no1` (as salt: hydrochloride) [Compound 37] came in with a melting point of 224 to 225.5 °C.

For `CCc1nc(N)nc(N)c1OCc1cc(-c2ccc(C(=O)O)cc2)no1` (as salt: hydrochloride) [Compound 44], the melting point fell in the range of 242 to 244 °C.

Consider `CCc1nc(N)nc(N)c1OCc1cn(-c2ccccc2)nn1` (as salt: hydrochloride) [Compound 13], for which the melting point fell in the range of 212.5 to 213.5 °C.

With `CCc1nc(N)nc(N)c1OCc1cn(-c2ccc(C(=O)OC)cc2)nn1` (as salt: hydrochloride) [Compound 18], the melting point lay in the range of 197.5 to 199 °C.

`CCc1nc(N)nc(N)c1OCCCc1cc(-c2cccc(C#N)c2)no1` (as salt: hydrochloride) [Compound 47] displayed a melting point of 252 to 253 °C.

As for `CCc1nc(N)nc(N)c1OCCc1cn(-c2ccc(C(=O)OC)cc2)nn1` (as salt: hydrochloride) [Compound 21], the melting point was in the range of 190 to 192 °C.

For the compound `CCc1nc(N)nc(N)c1OCCc1cn(-c2ccc(C(=O)O)cc2)nn1` (as salt: hydrochloride) [Compound 22], the melting point was in the range of 270 to 271 °C.

For the compound `CCc1nc(N)nc(N)c1-c1cn(CCc2ccccc2)nn1` (as salt: hydrochloride) [Compound 7], the melting point lay within 203 to 204.5 °C.

For the compound `CCc1nc(N)nc(N)c1OCc1cn(Cc2ccc(O)cc2)nn1` (as salt: hydrochloride) [Compound 28], the melting point lay in the range of 224.2 to 225.2 °C.

`CCc1nc(N)nc(N)c1OCc1csc(-c2cccc(OCC(=O)OCc3ccccc3)c2)n1` (as salt: hydrochloride) (hydrate or solvate) [Compound 63] registered a melting point of 175 to 177 °C.

In turn, `CCc1nc(N)nc(N)c1OCCCc1cn(Cc2ccc(C(=O)O)cc2)nn1` (as salt: hydrochloride) [Compound 32] came in with a melting point of 211 to 212.5 °C.

For the compound `CCc1nc(N)nc(N)c1OCCCc1cc(-c2cccc(C(=O)OC)c2)no1` (as salt: hydrochloride) [Compound 48], the melting point lay within 188 to 189.5 °C.

The compound `CCc1nc(N)nc(N)c1OCc1csc(-c2cccc(C)c2)n1` (as salt: hydrochloride) [Compound 61] showed a melting point of 232 to 233 °C.

Turning to `CCc1nc(N)nc(N)c1OCc1cn(Cc2cc(F)c(O)c(F)c2)nn1` (as salt: hydrochloride) [Compound 27], the melting point is 224.7 to 226 °C.

`CCc1nc(N)nc(N)c1OCc1coc(-c2cccc(C)c2)n1` (as salt: hydrochloride) [Compound 51] registered a melting point of 225 to 226 °C.

Turning to `CCc1nc(N)nc(N)c1-c1cn(Cc2ccc(OC(=O)N(c3ccccc3)c3ccccc3)cc2)nn1` (as salt: hydrochloride) [Compound 6], the melting point lay in the range of 138 to 139 °C.

In turn, `CCc1nc(N)nc(N)c1OCc1csc(-c2ccc(C(=O)O)cc2)n1` (as salt: hydrochloride) [Compound 75] had a melting point of 213 to 214 °C.

Compound `CCc1nc(N)nc(N)c1OCc1cc(-c2ccc(C(F)(F)F)cc2)no1` (as salt: hydrochloride) [Compound 41] displayed a melting point of 173 to 174.5 °C.

For `CCc1nc(N)nc(N)c1OCc1csc(-c2ccc(Br)cc2)n1` (as salt: hydrochloride) [Compound 71], the melting point was in the range of 236 to 238 °C.

Compound `CCc1nc(N)nc(N)c1OCCc1coc(-c2ccc(C(=O)O)cc2)n1` (as salt: hydrochloride) [Compound 59] gave a melting point of 330 to 332 °C.

With `CCc1nc(N)nc(N)c1OCc1csc(-c2ccc(C(=O)OC)cc2)n1` (as salt: hydrochloride) [Compound 74], the melting point was 217 to 219 °C.

Take `CCc1nc(N)nc(N)c1OCc1csc(-c2ccc(OCC(=O)O)cc2)n1` (as salt: hydrochloride) (hydrate or solvate) [Compound 73]: the melting point lay within 203.5 to 205.5 °C.

In the case of `CCc1nc(N)nc(N)c1OCc1csc(-c2ccccc2)n1` (as salt: hydrochloride) [Compound 60], the melting point was in the range of 220 to 222 °C.

`CCc1nc(N)nc(N)c1OCc1csc(-c2cccc(OCC(=O)O)c2)n1` (as salt: hydrochloride) (hydrate or solvate) [Compound 64] displayed a melting point of 191 to 193 °C.

Compound `CCc1nc(N)nc(N)c1OCc1coc(-c2cccc(OCC(=O)OCc3ccccc3)c2)n1` (as salt: hydrochloride) (hydrate or solvate) [Compound 53] yielded a melting point of 163.5 to 164.5 °C.

In turn, `CCc1nc(N)nc(N)c1-c1cn(CCCOc2ccc(Cl)cc2)nn1` (as salt: hydrochloride) [Compound 11] displayed a melting point of 222.5 to 223.5 °C.

`CCc1nc(N)nc(N)c1-c1cn(Cc2ccc(C(=O)OC)cc2)nn1` (as salt: hydrochloride) [Compound 4] yielded a melting point of 222 to 223 °C.

`CCc1nc(N)nc(N)c1OCc1coc(-c2cccc(OCC(=O)O)c2)n1` (as salt: hydrochloride) (hydrate or solvate) [Compound 54] came in with a melting point of 203 to 204 °C.

`CCc1nc(N)nc(N)c1OCc1coc(-c2ccc(OCC(=O)O)cc2)n1` (as salt: hydrochloride) (hydrate or solvate) [Compound 57] yielded a melting point of 195.5 to 197.5 °C.

`CCc1nc(N)nc(N)c1OCCCc1cc(-c2cccc(C(F)(F)F)c2)no1` (as salt: hydrochloride) [Compound 46] displayed a melting point of 216.5 to 218 °C.

`CCc1nc(N)nc(N)c1OCc1coc(-c2ccc(Cl)cc2)n1` (as salt: hydrochloride) [Compound 55] displayed a melting point of 239 to 240 °C.

As for `CCc1nc(N)nc(N)c1OCc1cn(Cc2cccc(C(=O)O)c2)nn1` (as salt: hydrochloride) [Compound 26], the melting point was in the range of 170 to 171 °C.

Take `CCc1nc(N)nc(N)c1-c1cn(CCOc2ccc(C(=O)OC)cc2)nn1` (as salt: hydrochloride) [Compound 10]: the melting point is 225 to 226 °C.

The compound `CCc1nc(N)nc(N)c1-c1cn(Cc2ccccc2)nn1` (as salt: hydrochloride) [Compound 3] returned a melting point of 255.5 to 256.5 °C.

On to `CCc1nc(N)nc(N)c1OCc1cn(-c2ccc([N+](=O)[O-])cc2)nn1` (as salt: hydrochloride) [Compound 17], for which the melting point is 209 to 210.5 °C.

With `CCc1nc(N)nc(N)c1OCc1cn(Cc2ccc(C(=O)O)cc2)nn1` (as salt: hydrochloride) [Compound 29], the melting point fell in the range of 223.8 to 224.8 °C.

Regarding `CCc1nc(N)nc(N)c1OCCCc1cc(-c2ccc(Cl)cc2)no1` (as salt: hydrochloride) [Compound 45], the melting point lay within 231.5 to 232.5 °C.

`CCc1nc(N)nc(N)c1OCc1cc(-c2ccc(Br)cc2)no1` (as salt: hydrochloride) [Compound 36] displayed a melting point of 238 to 239.5 °C.

For the compound `CCc1nc(N)nc(N)c1OCc1cn(-c2ccc(C(=O)O)cc2)nn1` (as salt: hydrochloride) [Compound 19], the melting point was 270.8 to 272 °C.

Test system in the next data set: not listed separately
Put plainly: in vitro. The note with it: African green monkey.
From the text: as §1
Compound `CCc1nc(N)nc(N)c1-c1ccc(Cl)cc1` [Pyrimethamine, pyrimethamine, reference compound] had an IC50 greater than 10 µM.
